From patent publication US20230183193A1, “4-DIFLUOROMETHYL BENZOYL AMIDES WITH HERBICIDAL ACTION” (BAYER CROPSCIENCE AKTIENGESELLSCHAFT, priority 2017, published 2023)

How the values were obtained:
Format in all cases: in vivo
[1] = system: Abutilon theophrasti; test: Pre-emergence herbicidal action, ABUTH; conditions: for Herbicidal efficacy against ABUTH: comparison with WO 2011035874, Table G; for herbicidal activity ABUTH: dosage 320 g/ha, scored visually after 3 weeks vs untreated controls
In short: (§1)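 Weed seeds were laid out in sandy loam and covered with soil, then the soil surface was treated with an aqueous suspension or emulsion of the formulated compound containing 0.2% wetting agent. Pots stayed in the greenhouse for 3 weeks before damage was rated visually against untreated plants.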

[2] = system: Alopecurus myosuroides; test: Pre-emergence herbicidal action, ALOMY
In short: as §1

[3] = system: Amaranthus retroflexus; test: Pre-emergence herbicidal action, AMARE; conditions: for Herbicidal efficacy against AMARE: comparison with WO 2011035874, Table H; for herbicidal activity AMARE: dosage 320 g/ha, scored visually after 3 weeks vs untreated controls
In short: as §1

[4] = system: Avena fatua; test: Pre-emergence herbicidal action, AVEFA
In short: as §1

[5] = system: Cyperus serotinus; test: Pre-emergence herbicidal action, CYPES; conditions: for herbicidal activity CYPES: dosage 320 g/ha, scored visually after 3 weeks vs untreated controls
In short: as §1

[6] = system: Polygonum convolvulus; test: Pre-emergence herbicidal action, POLCO
In short: as §1

[7] = system: Setaria viridis; test: Pre-emergence herbicidal action, SETVI; conditions: for herbicidal activity SETVI: dosage 320 g/ha, scored visually after 3 weeks vs untreated controls
In short: as §1

[8] = system: Stellaria media; test: Pre-emergence herbicidal action, STEME; conditions: for Herbicidal efficacy against STEME: comparison with WO 2011035874, Table H; for Herbicidal activity STEME: dosage 320 g/ha, scored visually after 3 weeks vs untreated controls
In short: as §1

[9] = system: Veronica persica; test: Pre-emergence herbicidal action, VERPE; conditions: comparison with WO 2011035874, Table H
From the text: (§2) 1. Pre-Emergence Herbicidal Action Against Harmful Plants Seeds of monocotyledonous and dicotyledonous weed plants and crop plants are laid out in sandy loam soil in wood-fiber pots and covered with soil. The compounds of the invention, formulated in the form of wettable powders (WP) or as emulsion concentrates (EC), are then applied to the surface of the covering soil in the form of an aqueous suspension or emulsion at a water application rate equating to […], with addition of 0.2% wetting agent. After the treatment, the pots are placed in a greenhouse and kept under good growth conditions for the trial plants. The damage to the test plants is scored visually after a test period of 3 weeks by comparison with untreated controls (herbicidal activity in percent (%): 100% activity=the plants have died, 0% activity=like control plants).
(§3) For comparison, the herbicidal activity of numerous compounds according to the invention was tested with the structurally closest compounds known from the documents WO 2011/035874, WO 2012/028579 and WO 2012/126932, by the pre- and post-emergence method.

[10] = system: Viola tricolor; test: Pre-emergence herbicidal action, VIOTR; conditions: for herbicidal activity VIOTR: dosage 320 g/ha, scored visually after 3 weeks vs untreated controls
In short: as §1

[11] = system: Matricaria inodora; test: Post-emergence herbicidal action, MATIN
Procedure: (§4) Seeds of monocotyledonous and dicotyledonous weed and crop plants are laid out in sandy loam soil in wood-fiber pots, covered with soil and cultivated in a greenhouse under good growth conditions. 2 to 3 weeks after sowing, the test plants are treated at the one-leaf stage. The compounds of the invention, formulated in the form of wettable powders (WP) or as emulsion concentrates (EC), are then sprayed onto the green parts of the plants in the form of an aqueous suspension or emulsion at a water application rate equating to […], with addition of 0.2% wetting agent. After the test plants have been left to stand in the greenhouse under optimal growth conditions for about 3 weeks, the action of the preparations is assessed visually in comparison to untreated controls (herbicidal action in percent (%): 100% activity=the plants have died, 0% activity=like control plants). […] At the same time, inventive compounds leave Gramineae crops such as barley, wheat, rye, millet/sorghum, corn or rice virtually undamaged when applied post-emergence, even at high active compound dosages. In addition, some substances are also harmless to dicotyledonous crops such as soya, cotton, oilseed rape, sugar beet or potatoes. Some of the compounds according to the invention have high selectivity and are therefore suitable for controlling unwanted vegetation in agricultural crops by the post-emergence method. The data of Tables C and D below illustrate, in an exemplary manner, the […] herbicidal action of the compounds according to the invention, the herbicidal activity being stated in percent.
as §3

[12] = system: Pharbitis purpureum; test: Post-emergence herbicidal action, PHBPU; conditions: 80 g/ha; for Herbicidal activity PHBPU: Table D
In short: (§5)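 Post-emergence spray; one-leaf stage (2–3 wk after sowing), sandy loam, greenhouse. WP/EC in water, 600 to […], +0.2% wetting agent. Visual % damage vs untreated at ~3 wk; 100% = plants dead.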

[13] = system: Stellaria media; test: Post-emergence herbicidal action, STEME; conditions: 80 g/ha; for Herbicidal activity STEME: Table D
In short: as §5

[14] = system: Viola tricolor; test: Post-emergence herbicidal action, VIOTR; conditions: for herbicidal activity VIOTR: Table D
In short: as §5

[15] = system: ECHCG; test: Pre-emergence herbicidal action, ECHCG; conditions: comparison with WO 2011035874, Table G
From the text: as §2

[16] = system: Abutilon theophrasti; test: Post-emergence herbicidal action, ABUTH; conditions: 80 g/ha; for herbicidal activity ABUTH: Table D
In short: as §5

[17] = system: Amaranthus retroflexus; test: Post-emergence herbicidal action, AMARE; conditions: 80 g/ha; for Herbicidal efficacy against AMARE: comparison with WO 2011035874, Table E; for herbicidal activity AMARE: Table D
In short: as §5

[18] = system: Veronica persica; test: Post-emergence herbicidal action, VERPE
Procedure: as §4, §3

[19] = system: Matricaria inodora; test: Pre-emergence herbicidal action, MATIN; conditions: dosage 320 g/ha, scored visually after 3 weeks vs untreated controls
In short: as §1

[20] = system: Avena fatua; test: Post-emergence herbicidal action, AVEFA
In short: as §5

[21] = system: Setaria viridis; test: Post-emergence herbicidal action, SETVI
In short: as §5

[22] = system: ECHCG; test: Post-emergence herbicidal action, ECHCG; conditions: 80 g/ha, Table C
In short: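 Weed and crop plants grown in sandy loam in the greenhouse, treated at the one-leaf stage 2–3 weeks after sowing. Damage scored visually after about 3 weeks vs untreated controls (0% = control, 100% = dead).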

[23] = system: LOLMU; test: Pre-emergence herbicidal action, LOLMU; conditions: dosage 80 g/ha, Table L
[24] = 320 g/ha, comparison with WO 2011035874, Table G
[25] = 320 g/ha, comparison with WO 2011035874, Table H
[26] = 80 g/ha, comparison with WO2011035874, Table F
[27] = comparison with WO2011035874, Table F
[28] = 80 g/ha, comparison with WO 2011035874, Table G
[29] = 80 g/ha, comparison with WO 2011035874, Table H
[30] = comparison with WO 2011035874, Table E
[31] = 80 g/ha, comparison with WO 2011035874, Table E
[32] = dosage 320 g/ha, scored visually after 3 weeks vs untreated controls

CC[S+]([O-])c1c(C(F)F)ccc(C(=O)Nc2nnnn2C)c1I (stereo not drawn) [Example 1-77]
Herbicidal efficacy against ABUTH ([1]; 320 g/ha): 100%
Herbicidal efficacy against ALOMY [2, 24]: 10%
Herbicidal efficacy against AMARE ([3]; 320 g/ha): 100%
Herbicidal efficacy against AVEFA [4, 24]: 0%
Herbicidal efficacy against CYPES [5, 24]: 30%
Herbicidal efficacy against POLCO [6, 25]: 30%
Herbicidal efficacy against SETVI [7, 24]: 20%
Herbicidal efficacy against STEME ([8]; 320 g/ha): 80%
Herbicidal efficacy against VERPE ([9]; 320 g/ha): 90%
Herbicidal efficacy against VIOTR [10, 25]: 60%
Herbicidal efficacy against MATIN [11, 26]: 0%
Herbicidal efficacy against PHBPU [12, 27]: 40%
Herbicidal efficacy against STEME [13, 27]: 80%
Herbicidal efficacy against VIOTR [14, 26]: 60%
Herbicidal efficacy against ECHCG ([15]; 320 g/ha): 70%

Cn1nnnc1NC(=O)c1ccc(C(F)F)c(S(=O)(=O)CC2CC2)c1I [Example 1-81]
Herbicidal efficacy against ABUTH ([1]; 80 g/ha): 20%
Herbicidal efficacy against ALOMY [2, 28]: 0%
Herbicidal efficacy against AMARE ([3]; 80 g/ha): 60%
Herbicidal efficacy against AVEFA [4, 28]: 40%
Herbicidal efficacy against CYPES [5, 28]: 0%
Herbicidal efficacy against POLCO [6, 29]: 10%
Herbicidal efficacy against SETVI [7, 28]: 10%
Herbicidal efficacy against STEME ([8]; 80 g/ha): 50%
Herbicidal efficacy against VERPE ([9]; 80 g/ha): 70%
Herbicidal efficacy against VIOTR [10, 29]: 90%
Herbicidal efficacy against ABUTH [16, 30]: 30%
Herbicidal efficacy against AMARE [17]: 60%
Herbicidal efficacy against MATIN [11, 31]: 10%
Herbicidal efficacy against PHBPU [12, 30]: 10%
Herbicidal efficacy against STEME [13, 30]: 0%
Herbicidal efficacy against VERPE [18, 31]: 30%
Herbicidal efficacy against VIOTR [14, 31]: 0%
Herbicidal efficacy against ECHCG ([15]; 80 g/ha): 10%

CSc1c(C(F)F)ccc(C(=O)Nc2nonc2C)c1C [Example 5-1]
Herbicidal efficacy against ABUTH ([1]; 80 g/ha): 100%
Herbicidal efficacy against ABUTH ([1]; 320 g/ha): 100%
herbicidal activity ABUTH [1]: 100%
Herbicidal efficacy against ALOMY [2, 28]: 30%
Herbicidal efficacy against ALOMY [2, 24]: 40%
Herbicidal efficacy against AMARE ([3]; 80 g/ha): 100%
Herbicidal efficacy against AMARE ([3]; 320 g/ha): 100%
herbicidal activity AMARE [3]: 100%
Herbicidal efficacy against AVEFA [4, 28]: 30%
Herbicidal efficacy against AVEFA [4, 24]: 60%
Herbicidal efficacy against CYPES [5, 28]: 50%
Herbicidal efficacy against CYPES [5, 24]: 80%
herbicidal activity CYPES [5]: 80%
herbicidal activity MATIN [19]: 100%
Herbicidal efficacy against POLCO [6, 29]: 80%
Herbicidal efficacy against POLCO [6, 25]: 100%
Herbicidal efficacy against SETVI [7, 28]: 80%
Herbicidal efficacy against SETVI [7, 24]: 100%
herbicidal activity SETVI [7]: 100%
Herbicidal efficacy against STEME ([8]; 80 g/ha): 80%
Herbicidal efficacy against STEME ([8]; 320 g/ha): 90%
Herbicidal activity STEME [8]: 90%
Herbicidal efficacy against VERPE ([9]; 80 g/ha): 100%
Herbicidal efficacy against VERPE ([9]; 320 g/ha): 100%
Herbicidal efficacy against VIOTR [10, 29]: 100%
Herbicidal efficacy against VIOTR [10, 25]: 100%
herbicidal activity VIOTR [10]: 100%
herbicidal activity ABUTH [16]: 100%
Herbicidal efficacy against ABUTH [16, 30]: 100%
Herbicidal efficacy against ABUTH [16, 27]: 100%
herbicidal activity AMARE [17]: 80%
Herbicidal efficacy against AMARE [17]: 80%
Herbicidal efficacy against MATIN [11, 31]: 40%
Herbicidal efficacy against MATIN [11, 26]: 40%
Herbicidal activity PHBPU [12]: 90%
Herbicidal efficacy against PHBPU [12, 30]: 90%
Herbicidal efficacy against PHBPU [12, 27]: 90%
Herbicidal activity STEME [13]: 100%
Herbicidal efficacy against STEME [13, 30]: 100%
Herbicidal efficacy against STEME [13, 27]: 100%
Herbicidal efficacy against VERPE [18, 31]: 100%
herbicidal activity VIOTR ([14]; 80 g/ha): 100%
Herbicidal efficacy against VIOTR [14, 31]: 100%
Herbicidal efficacy against VIOTR [14, 26]: 100%
Herbicidal efficacy against ECHCG ([15]; 80 g/ha): 80%
Herbicidal efficacy against ECHCG ([15]; 320 g/ha): 100%

Cc1nnc(NC(=O)c2ccc(C(F)F)c([S+](C)[O-])c2C)o1 (stereo not drawn) [Example 7-2]
herbicidal activity ABUTH [1]: 100%
Herbicidal efficacy against ALOMY ([2]; dosage 80 g/ha, Table L): 80
herbicidal activity ALOMY [2, 32]: 90%
herbicidal activity AMARE [3]: 100%
Herbicidal efficacy against AVEFA ([4]; dosage 80 g/ha, Table L): 70
herbicidal activity AVEFA [4, 32]: 90%
Herbicidal efficacy against CYPES ([5]; dosage 80 g/ha, Table L): 80
herbicidal activity CYPES [5]: 90%
herbicidal activity MATIN [19]: 90%
Herbicidal efficacy against POLCO ([6]; dosage 80 g/ha, Table L): 30
Herbicidal efficacy against SETVI ([7]; dosage 80 g/ha, Table L): 90
herbicidal activity SETVI [7]: 100%
Herbicidal activity STEME [8]: 80%
Herbicidal efficacy against VIOTR ([10]; dosage 80 g/ha, Table L): 100
herbicidal activity VIOTR [10]: 100%
herbicidal activity ABUTH [16]: 100%
herbicidal activity AMARE [17]: 100%
herbicidal activity AVEFA ([20]; 80 g/ha, Table C): 90%
Herbicidal efficacy against AVEFA ([20]; dosage 20 g/ha, Table M): 70
Herbicidal efficacy against MATIN ([11]; dosage 20 g/ha, Table M): 70
Herbicidal activity PHBPU [12]: 90%
herbicidal activity SETVI ([21]; 80 g/ha, Table C): 100%
Herbicidal efficacy against SETVI ([21]; dosage 20 g/ha, Table M): 100
Herbicidal activity STEME [13]: 100%
Herbicidal efficacy against VERPE ([18]; dosage 20 g/ha, Table M): 100
herbicidal activity VIOTR ([14]; 80 g/ha): 100%
Herbicidal efficacy against VIOTR ([14]; dosage 20 g/ha, Table M): 100
Herbicidal activity ECHCG [22]: 90%
Herbicidal efficacy against LOLMU [23]: 10
